# From PubChem BioAssay (NCI)
#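 The compound was tested at five concentrations on cells cultured in 96-well plates, with a 48-hour exposure period. TGI: total growth inhibition.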
# Experiments:
# Assay in all cases: inhibition of tumour cell growth, NCI panel, 48 h
# [1] = system: 786-0 renal
# [2] = system: A498 renal
# [3] = system: A549 NSCLC
# [4] = system: ACHN renal
# [5] = system: CAKI-1 renal
# [6] = system: CCRF-CEM leukemia
# [7] = system: COLO 205 colon
# [8] = system: DMS 114 small cell lung
# [9] = system: EKVX NSCLC
# [10] = system: HCC-2998 colon
# [11] = system: HCT-116 colon
# [12] = system: HCT-15 colon
# [13] = system: HL-60(TB) leukemia
# [14] = system: HOP-18 NSCLC
# [15] = system: HOP-62 NSCLC
# [16] = system: HOP-92 NSCLC
# [17] = system: HT29 colon
# [18] = system: IGROV1 ovarian
# [19] = system: K-562 leukemia
# [20] = system: KM12 colon
# [21] = system: KM20L2 colon
# [22] = system: LXFL 529 NSCLC
# [23] = system: M14 melanoma
# [24] = system: M19-MEL melanoma
# [25] = system: MALME-3M melanoma
# [26] = system: MOLT-4 leukemia
# [27] = system: NCI-H226 lung
# [28] = system: NCI-H460 lung
# [29] = system: OVCAR-3 ovarian
# [30] = system: OVCAR-4 ovarian
# [31] = system: OVCAR-8 ovarian
# [32] = system: RPMI-8226 leukemia
# [33] = system: RXF 393 renal
# [34] = system: SF-295 CNS
# [35] = system: SF-539 CNS
# [36] = system: SK-MEL-2 melanoma
# [37] = system: SK-MEL-28 melanoma
# [38] = system: SN12C renal
# [39] = system: SNB-19 CNS
# [40] = system: SNB-75 CNS
# [41] = system: SNB-78 CNS
# [42] = system: SR leukemia
# [43] = system: SW-620 colon
# [44] = system: TK-10 renal
# [45] = system: U251 CNS
# [46] = system: UACC-62 melanoma
# [47] = system: UO-31 renal
# [48] = system: XF 498 CNS
# [49] = system: DLD-1 colon
# [50] = system: DMS 273 small cell lung
# [51] = system: DU-145 prostate
# [52] = system: LOX IMVI melanoma
# [53] = system: NCI-H23 lung
# [54] = system: NCI-H522 lung
# [55] = system: OVCAR-5 ovarian
# [56] = system: SF-268 CNS
# [57] = system: SK-MEL-5 melanoma
# [58] = system: SK-OV-3 ovarian
# [59] = system: UACC-257 melanoma
compound,measurement,setting,value
CCC12C=CCN3CCC4(c5cc(C6(C(=O)OC)CCCCCc7c6[nH]c6ccccc76)c(OC)cc5N(C)C4C(O)(C(=O)OC)C1OC(C)=O)C32 (centres undefined),TGI,[1],4.89 µM
same,TGI,[2],7.39 µM
same,TGI,[3],11.7 µM
same,TGI,[4],3.3 µM
same,TGI,[5],7.46 µM
same,TGI,[6],5.49 µM
same,TGI,[7],8.85 µM
same,TGI,[8],7.09 µM
same,TGI,[9],14 µM
same,TGI,[10],3.97 µM
same,TGI,[11],13 µM
same,TGI,[12],5.29 µM
same,TGI,[13],5.81 µM
same,TGI,[14],4.86 µM
same,TGI,[15],13.2 µM
same,TGI,[16],4.76 µM
same,TGI,[17],2.06 µM
same,TGI,[18],5.23 µM
same,TGI,[19],> 100 µM
same,TGI,[20],5.93 µM
same,TGI,[21],4.76 µM
same,TGI,[22],5.54 µM
same,TGI,[23],6.75 µM
same,TGI,[24],6.93 µM
same,TGI,[25],3.84 µM
same,TGI,[26],9.19 µM
same,TGI,[27],6.65 µM
same,TGI,[28],9.92 µM
same,TGI,[29],15.5 µM
same,TGI,[30],12.3 µM
same,TGI,[31],17.2 µM
same,TGI,[32],6.97 µM
same,TGI,[33],3.52 µM
same,TGI,[34],5.3 µM
same,TGI,[35],4.63 µM
same,TGI,[36],3.17 µM
same,TGI,[37],4.35 µM
same,TGI,[38],12.8 µM
same,TGI,[39],12.1 µM
same,TGI,[40],7.8 µM
same,TGI,[41],9.48 µM
same,TGI,[42],7.65 µM
same,TGI,[43],17.5 µM
same,TGI,[44],5.5 µM
same,TGI,[45],5.68 µM
same,TGI,[46],3.43 µM
same,TGI,[47],7.25 µM
same,TGI,[48],6.44 µM
CC(=O)N/C=C/c1cc(O)ccc1O,TGI,[1],48.1 µM
same,TGI,[2],98.1 µM
same,TGI,[3],> 76.4 µM
same,TGI,[4],37.4 µM
same,TGI,[5],41.7 µM
same,TGI,[6],75.3 µM
same,TGI,[7],45.8 µM
same,TGI,[49],48.2 µM
same,TGI,[50],> 100 µM
same,TGI,[51],> 100 µM
same,TGI,[9],> 73.6 µM
same,TGI,[10],> 76.2 µM
same,TGI,[11],47.4 µM
same,TGI,[12],> 72.9 µM
same,TGI,[13],54 µM
same,TGI,[14],35.2 µM
same,TGI,[15],> 55.2 µM
same,TGI,[16],36.8 µM
same,TGI,[17],48.6 µM
same,TGI,[18],> 68.1 µM
same,TGI,[19],> 91.7 µM
same,TGI,[20],> 100 µM
same,TGI,[21],> 67.7 µM
same,TGI,[52],45.6 µM
same,TGI,[22],29 µM
same,TGI,[23],48.2 µM
same,TGI,[24],46.7 µM
same,TGI,[25],> 60.6 µM
same,TGI,[26],37.1 µM
same,TGI,[27],> 77.4 µM
same,TGI,[53],56.1 µM
same,TGI,[28],> 74.6 µM
same,TGI,[54],7.19 µM
same,TGI,[29],29.8 µM
same,TGI,[30],47.9 µM
same,TGI,[55],38.1 µM
same,TGI,[31],> 85.9 µM
same,TGI,[32],> 89.9 µM
same,TGI,[33],49.3 µM
same,TGI,[56],49.8 µM
same,TGI,[34],48.1 µM
same,TGI,[35],> 66.5 µM
same,TGI,[36],55.1 µM
same,TGI,[37],48.6 µM
same,TGI,[57],> 67.5 µM
same,TGI,[58],> 70.6 µM
same,TGI,[38],46.9 µM
same,TGI,[39],> 72.4 µM
same,TGI,[40],> 81.9 µM
same,TGI,[41],> 71.8 µM
same,TGI,[42],70.5 µM
same,TGI,[43],35.4 µM
same,TGI,[44],54.5 µM
same,TGI,[45],> 68.6 µM
same,TGI,[59],47.9 µM
same,TGI,[46],47.1 µM
same,TGI,[47],46.2 µM
same,TGI,[48],32.3 µM
COC(=O)C(=O)C(C(=O)C(=O)Nc1ccc(OC)cc1[N+](=O)[O-])c1nc2ccc([N+](=O)[O-])cc2[nH]c1=O (centres undefined),TGI,[1],> 100 µM
same,TGI,[2],> 100 µM
same,TGI,[3],> 100 µM
same,TGI,[4],> 100 µM
same,TGI,[5],> 100 µM
same,TGI,[6],> 100 µM
same,TGI,[7],> 100 µM
same,TGI,[49],> 100 µM
same,TGI,[8],> 100 µM
same,TGI,[9],> 100 µM
same,TGI,[10],> 100 µM
same,TGI,[11],> 100 µM
same,TGI,[12],> 100 µM
same,TGI,[13],> 100 µM
same,TGI,[14],> 100 µM
same,TGI,[15],> 100 µM
same,TGI,[16],> 100 µM
same,TGI,[17],> 100 µM
same,TGI,[18],> 100 µM
same,TGI,[19],> 100 µM
same,TGI,[20],> 100 µM
same,TGI,[21],> 100 µM
same,TGI,[52],> 100 µM
same,TGI,[22],> 100 µM
same,TGI,[23],> 100 µM
same,TGI,[24],> 100 µM
same,TGI,[25],> 100 µM
same,TGI,[26],> 100 µM
same,TGI,[27],> 100 µM
same,TGI,[53],> 100 µM
same,TGI,[28],> 100 µM
same,TGI,[54],> 100 µM
same,TGI,[29],> 100 µM
same,TGI,[30],> 100 µM
same,TGI,[55],> 100 µM
same,TGI,[31],> 100 µM
same,TGI,[32],> 100 µM
same,TGI,[33],> 100 µM
same,TGI,[56],> 100 µM
same,TGI,[34],> 100 µM
same,TGI,[58],> 100 µM
same,TGI,[38],> 100 µM
same,TGI,[39],> 100 µM
same,TGI,[40],> 100 µM
same,TGI,[41],> 100 µM
same,TGI,[42],> 100 µM
same,TGI,[43],> 100 µM
same,TGI,[44],> 100 µM
same,TGI,[45],> 100 µM
same,TGI,[59],> 100 µM
same,TGI,[46],> 100 µM
same,TGI,[47],> 100 µM
same,TGI,[48],> 100 µM
